Source: PubChem BioAssay AID328 (DTP/NCI, 2004)
Several values for one entry are separate records, joined by “and”; a condition that tells them apart may be missing. Equal values may be shown once. Toxic doses and inconclusive results are not listed.

Tested on: BDF1 mice, P388 leukemia ip, median survival T/C
Assay: NCI In Vivo Anticancer Drug Screen. Data for tumor model P388 Leukemia (intraperitoneal) in B6D2F1 (BDF1) mice
Conditions: endpoint: median survival time, higher = longer survival
Experimental: The antitumor activity of compounds was measured in mice bearing transplantable tumors. Survival or tumor size were measured and the results are expressed as the measurement made in the treated group (T) divided by the measurement made in the vehicle treated control group (C). The tumor model used in this assay is P388 Leukemia (intraperitoneal) in B6D2F1 (BDF1) mice

[1] = dose: 100.0 mg/kg/injection, schedule: Q04DX003 (ip), vehicle: Klucel (hydroxypropylcellulose) (HPC)
[2] = dose: 200.0 mg/kg/injection, schedule: Q04DX003 (ip), vehicle: Klucel (hydroxypropylcellulose) (HPC)
[3] = dose: 400.0 mg/kg/injection, schedule: Q04DX003 (ip), vehicle: Klucel (hydroxypropylcellulose) (HPC)
[4] = dose: 50.0 mg/kg/injection, schedule: Q04DX003 (ip), vehicle: saline with Tween-80
[5] = dose: 100.0 mg/kg/injection, schedule: Q04DX003 (ip), vehicle: saline with Tween-80
[6] = dose: 0.25 mg/kg/injection, schedule: Q01DX009 (ip), vehicle: saline
[7] = dose: 0.5 mg/kg/injection, schedule: Q01DX009 (ip), vehicle: saline

With `O=C1OC(=O)C2C3CCC(O3)C12` (stereo not drawn) the T/C (dose: 0.39 mg/kg/injection, schedule: Q04DX003 (ip), vehicle: saline) was 100 % of control, the T/C (dose: 0.65 mg/kg/injection, schedule: Q01DX001 (ip), vehicle: saline) was 104 % of control and the T/C (dose: 0.78 mg/kg/injection, schedule: Q01DX009 (ip), vehicle: saline) was 105 % of control. The T/C (dose: 0.78 mg/kg/injection, schedule: Q04DX003 (ip), vehicle: saline) was 100 % of control, the T/C (dose: 1.31 mg/kg/injection, schedule: Q01DX001 (ip), vehicle: saline) was 100 % of control and the T/C (dose: 1.56 mg/kg/injection, schedule: Q01DX009 (ip), vehicle: saline) was 100 % of control. For the same molecule, the T/C (dose: 1.56 mg/kg/injection, schedule: Q04DX003 (ip), vehicle: saline) was 100 % of control, the T/C (dose: 2.3 mg/kg/injection, schedule: Q04DX003 (ip), vehicle: saline) was 110 % of control and the T/C (dose: 2.62 mg/kg/injection, schedule: Q01DX001 (ip), vehicle: saline) was 100 % of control. The T/C (dose: 3.5 mg/kg/injection, schedule: Q04DX003 (ip), vehicle: saline) was 115 % of control, the T/C (dose: 5.2 mg/kg/injection, schedule: Q04DX003 (ip), vehicle: saline) was 100 % of control and the T/C (dose: 5.25 mg/kg/injection, schedule: Q01DX001 (ip), vehicle: Klucel (hydroxypropylcellulose) (HPC)) was 91 % of control. The T/C (dose: 5.25 mg/kg/injection, schedule: Q01DX001 (ip), vehicle: saline) was 95 % of control, the T/C (dose: 7.2 mg/kg/injection, schedule: Q04DX003 (ip), vehicle: saline) was 100 % of control and the T/C (dose: 21.0 mg/kg/injection, schedule: Q01DX001 (ip), vehicle: Klucel (hydroxypropylcellulose) (HPC)) was 87 % of control.

In the case of `CCOC(=O)CNC(=O)NC12CC3CC(CC(C3)C1)C2`, the T/C (dose: 100.0 mg/kg/injection, schedule: Q01DX009 (ip), vehicle: saline) is reported as 119 % of control, the T/C (dose: 200.0 mg/kg/injection, schedule: Q01DX009 (ip), vehicle: saline) is reported as 104 % of control and the T/C (dose: 400.0 mg/kg/injection, schedule: Q01DX009 (ip), vehicle: saline) is reported as 102 % of control.

In the case of `CC(C)(C)COC(=O)CCN1CC1`, the T/C (dose: 2.5 mg/kg/injection, schedule: Q01DX009 (ip), vehicle: Klucel (hydroxypropylcellulose) (HPC)) is reported as 116 % of control, the T/C (dose: 5.0 mg/kg/injection, schedule: Q01DX009 (ip), vehicle: Klucel (hydroxypropylcellulose) (HPC)) is reported as 111 % of control and the T/C (dose: 10.0 mg/kg/injection, schedule: Q01DX009 (ip), vehicle: Klucel (hydroxypropylcellulose) (HPC)) is reported as 122 % of control. The T/C (dose: 20.0 mg/kg/injection, schedule: Q01DX009 (ip), vehicle: Klucel (hydroxypropylcellulose) (HPC)) was 100 % of control, the T/C (dose: 20.0 mg/kg/injection, schedule: Q04DX003 (ip), vehicle: Klucel (hydroxypropylcellulose) (HPC)) was 95 % of control and the T/C (dose: 40.0 mg/kg/injection, schedule: Q04DX003 (ip), vehicle: Klucel (hydroxypropylcellulose) (HPC)) was 100 % of control. For the same molecule, the T/C (dose: 80.0 mg/kg/injection, schedule: Q04DX003 (ip), vehicle: Klucel (hydroxypropylcellulose) (HPC)) was 109 % of control.

`CC1(C)OC2C=CC3C(OC(=O)C3(C)Cl)C2O1` (stereo not drawn) was tested, and the T/C (dose: 50.0 mg/kg/injection, schedule: Q04DX002 (ip), vehicle: saline with Tween-80) was 112 % of control and 114 % of control, the T/C (dose: 100.0 mg/kg/injection, schedule: Q04DX002 (ip), vehicle: saline with Tween-80) was 99 % of control and 103 % of control and 104 % of control and the T/C (dose: 200.0 mg/kg/injection, schedule: Q04DX002 (ip), vehicle: saline with Tween-80) was 103 % of control and 104 % of control. For the same molecule, the T/C (dose: 400.0 mg/kg/injection, schedule: Q04DX002 (ip), vehicle: saline with Tween-80) was 99 % of control and 101 % of control (2×).

`C[P+](C)(c1ccccc1)c1ccccc1` was tested, and the T/C (dose: 6.25 mg/kg/injection, schedule: Q04DX003 (ip), vehicle: saline with Tween-80) was 100 % of control and the T/C (dose: 12.5 mg/kg/injection, schedule: Q04DX003 (ip), vehicle: saline with Tween-80) was 104 % of control.

With `CC1(C)C2CC3C(=CCCC3(Cl)C#N)C1C2` (stereo not drawn) the T/C [1] was 100 % of control, the T/C [2] was 95 % of control and the T/C [3] was 95 % of control.

`c1ccc2c(c1)[nH]c1nc3ccncc3nc12` was tested, and the T/C [4] was 90 % of control and the T/C [5] was 95 % of control.

`COC(=O)C1=COC2OC3C(C(C)O)C(=O)OC34C=CC1C24` (stereo not drawn) was tested, and the T/C (dose: 0.04 mg/kg/injection, schedule: Q01DX009 (ip), vehicle: saline + alcohol) was 90 % of control, the T/C (dose: 0.2 mg/kg/injection, schedule: Q01DX009 (ip), vehicle: saline + alcohol) was 95 % of control and the T/C (dose: 1.0 mg/kg/injection, schedule: Q01DX009 (ip), vehicle: saline + alcohol) was 118 % of control. For the same molecule, the T/C (dose: 5.0 mg/kg/injection, schedule: Q01DX009 (ip), vehicle: saline + alcohol) was 118 % of control.

With `OC(c1cc(C23CC4CC(CC(C4)C2)C3)nc2c(Cl)cc(Cl)cc12)C1CCCCN1` (stereo not drawn) the T/C (dose: 12.5 mg/kg/injection, schedule: Q01DX009 (ip), vehicle: saline with Tween-80) was 88 % of control, the T/C (dose: 25.0 mg/kg/injection, schedule: Q01DX009 (ip), vehicle: saline with Tween-80) was 90 % of control and the T/C (dose: 50.0 mg/kg/injection, schedule: Q01DX009 (ip), vehicle: saline with Tween-80) was 89 % of control and 97 % of control.

With `Cc1ccnc(NC(=O)Nc2ccccc2F)c1` the T/C (dose: 100.0 mg/kg/injection, schedule: Q01DX001 (ip), vehicle: Klucel (hydroxypropylcellulose) (HPC)) was 90 % of control, the T/C (dose: 200.0 mg/kg/injection, schedule: Q01DX001 (ip), vehicle: Klucel (hydroxypropylcellulose) (HPC)) was 95 % of control and the T/C (dose: 400.0 mg/kg/injection, schedule: Q01DX001 (ip), vehicle: Klucel (hydroxypropylcellulose) (HPC)) was 105 % of control.

`CCC(=O)OCC(=O)[C@]1(O)Cc2c(O)c3c(c(O)c2[C@@H](OC2CC(N)C(O)C(C)O2)C1)C(=O)c1c(OC)cccc1C3=O` (stereo partly drawn) was tested, and the T/C (dose: 0.12 mg/kg/injection, schedule: Q01DX009 (ip), vehicle: saline) was 170 % of control, the T/C [6] was 201 % of control and the T/C [7] was 219 % of control. For the same molecule, the T/C (dose: 1.0 mg/kg/injection, schedule: Q01DX009 (ip), vehicle: saline) was 186 % of control, the T/C (dose: 2.0 mg/kg/injection, schedule: Q01DX009 (ip), vehicle: saline) was 241 % of control and the T/C (dose: 7.5 micrograms/kg/injection, schedule: Q01DX009 (ip), vehicle: saline) was 102 % of control. The T/C (dose: 15.0 micrograms/kg/injection, schedule: Q01DX009 (ip), vehicle: saline) was 107 % of control, the T/C (dose: 30.0 micrograms/kg/injection, schedule: Q01DX009 (ip), vehicle: saline) was 118 % of control and the T/C (dose: 60.0 micrograms/kg/injection, schedule: Q01DX009 (ip), vehicle: saline) was 170 % of control.

For `O=C1c2ccccc2C(=O)N1CN1C(=O)c2ccccc2C1=O`, the T/C [4] was 95 % of control, the T/C [5] was 90 % of control and the T/C (dose: 200.0 mg/kg/injection, schedule: Q04DX003 (ip), vehicle: saline with Tween-80) was 86 % of control.

With `C=CC(OC)OC` the T/C (dose: 6.25 mg/kg/injection, schedule: Q04DX003 (ip), vehicle: saline) was 95 % of control, the T/C (dose: 12.5 mg/kg/injection, schedule: Q04DX003 (ip), vehicle: saline) was 100 % of control and the T/C (dose: 25.0 mg/kg/injection, schedule: Q04DX003 (ip), vehicle: saline) was 104 % of control.

`Cc1c([N+](=O)[O-])c(C)c([N+](=O)[O-])c(C(C)(C)C)c1[N+](=O)[O-]` was tested, and the T/C (dose: 100.0 mg/kg/injection, schedule: Q01DX009 (ip), vehicle: Klucel (hydroxypropylcellulose) (HPC)) was 100 % of control, the T/C [1] was 87 % of control and the T/C (dose: 200.0 mg/kg/injection, schedule: Q01DX009 (ip), vehicle: Klucel (hydroxypropylcellulose) (HPC)) was 87 % of control. For the same molecule, the T/C [2] was 87 % of control, the T/C (dose: 400.0 mg/kg/injection, schedule: Q01DX009 (ip), vehicle: Klucel (hydroxypropylcellulose) (HPC)) was 95 % of control and the T/C [3] was 91 % of control.

In the case of `CCN1C=C/C(=C\C=C/c2cc[n+](CC)c3ccccc23)c2ccccc21`, the T/C (dose: 0.13 mg/kg/injection, schedule: Q01DX009 (ip), vehicle: saline) is reported as 113 % of control, the T/C [6] is reported as 160 % of control and the T/C (dose: 0.27 mg/kg/injection, schedule: Q04DX003 (ip), vehicle: saline) is reported as 115 % of control. The T/C (dose: 0.4 mg/kg/injection, schedule: Q01DX009 (ip), vehicle: Klucel (hydroxypropylcellulose) (HPC)) was 150 % of control, the T/C (dose: 0.4 mg/kg/injection, schedule: Q04DX003 (ip), vehicle: saline) was 100 % of control and 115 % of control and the T/C [7] was 160 % of control. For the same molecule, the T/C (dose: 0.62 mg/kg/injection, schedule: Q01DX009 (ip), vehicle: Klucel (hydroxypropylcellulose) (HPC)) was 154 % of control, the T/C (dose: 0.62 mg/kg/injection, schedule: Q04DX003 (ip), vehicle: saline) was 100 % of control and 110 % of control and the T/C (dose: 0.66 mg/kg/injection, schedule: Q04DX003 (ip), vehicle: saline) was 154 % of control. For the same molecule, the T/C (dose: 0.82 mg/kg/injection, schedule: Q04DX003 (ip), vehicle: saline) was 155 % of control and the T/C (dose: 44.0 micrograms/kg/injection, schedule: Q01DX009 (ip), vehicle: saline) was 108 % of control.
